Measurements published in the kinase profiling compilation of Christmann-Franck et al. (2016).

What was measured:
Test in all cases: radiometric filter-binding kinase assay
[1] = tested on: AKT2 (human), P31751 [S474D]
BTK (human) = BTK (human) (UniProt Q06187)
CDK2 CCNA2 (human) = CDK2 CCNA2 (human) (UniProt P20248+P24941)
CHEK2 (human) = CHEK2 (human) (UniProt O96017)
CSK (human) = CSK (human) (UniProt P41240)
CSNK1D (human) = CSNK1D (human) (UniProt P48730)
FLT1 (human) = FLT1 (human) (UniProt P17948)
IKBKB (human) = IKBKB (human) (UniProt O14920)
IKBKE (human) = IKBKE (human) (UniProt Q14164)
INSRR (human) = INSRR (human) (UniProt P14616)
MAP2K1 (human) = MAP2K1 (human) (UniProt Q02750)
MAPK1 (human) = MAPK1 (human) (UniProt P28482)
MAPK14 (human) = MAPK14 (human) (UniProt Q16539)
MAPK15 (human) = MAPK15 (human) (UniProt Q8TD08)
MAPK3 (human) = MAPK3 (human) (UniProt P27361)
MKNK2 (human) = MKNK2 (human) (UniProt Q9HBH9)
NEK2 (human) = NEK2 (human) (UniProt P51955)
NEK6 (human) = NEK6 (human) (UniProt Q9HC98)
PAK7 (human) = PAK7 (human) (UniProt Q9P286)
PIM2 (human) = PIM2 (human) (UniProt Q9P1W9)
PLK1 (human) = PLK1 (human) (UniProt P53350)
PRKAA1 or PRKAA2 (rat) = conditions: accession and sequence are those of the human protein
PRKACA (human) = PRKACA (human) (UniProt P17612)
RPS6KA1 KD1 KD2 (human) = RPS6KA1 KD1 KD2 (human) (UniProt Q15418)
RPS6KA3 KD1 KD2 (human) = RPS6KA3 KD1 KD2 (human) (UniProt P51812)
RPS6KA5 KD1 KD2 (human) = RPS6KA5 KD1 KD2 (human) (UniProt O75582)
[2] = tested on: RPS6KB1 (human), P23443 [T412E]
SRC (human) = SRC (human) (UniProt P12931)
SYK (human) = SYK (human) (UniProt P43405)

NEK2 (human), sequence (P51955 whole entry, looked up): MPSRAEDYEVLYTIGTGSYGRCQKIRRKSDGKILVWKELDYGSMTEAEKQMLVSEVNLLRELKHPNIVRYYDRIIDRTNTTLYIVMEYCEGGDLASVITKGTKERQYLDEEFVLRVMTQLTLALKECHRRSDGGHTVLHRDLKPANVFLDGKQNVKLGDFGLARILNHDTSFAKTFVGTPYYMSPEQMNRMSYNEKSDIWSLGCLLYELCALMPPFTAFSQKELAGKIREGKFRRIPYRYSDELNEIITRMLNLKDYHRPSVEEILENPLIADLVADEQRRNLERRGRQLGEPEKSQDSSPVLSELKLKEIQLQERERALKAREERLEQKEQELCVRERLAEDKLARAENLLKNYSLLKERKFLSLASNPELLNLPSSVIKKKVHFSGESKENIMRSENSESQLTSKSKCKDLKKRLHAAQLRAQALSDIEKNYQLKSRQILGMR
RPS6KA5 KD1 KD2 (human), sequence (O75582 whole entry, looked up): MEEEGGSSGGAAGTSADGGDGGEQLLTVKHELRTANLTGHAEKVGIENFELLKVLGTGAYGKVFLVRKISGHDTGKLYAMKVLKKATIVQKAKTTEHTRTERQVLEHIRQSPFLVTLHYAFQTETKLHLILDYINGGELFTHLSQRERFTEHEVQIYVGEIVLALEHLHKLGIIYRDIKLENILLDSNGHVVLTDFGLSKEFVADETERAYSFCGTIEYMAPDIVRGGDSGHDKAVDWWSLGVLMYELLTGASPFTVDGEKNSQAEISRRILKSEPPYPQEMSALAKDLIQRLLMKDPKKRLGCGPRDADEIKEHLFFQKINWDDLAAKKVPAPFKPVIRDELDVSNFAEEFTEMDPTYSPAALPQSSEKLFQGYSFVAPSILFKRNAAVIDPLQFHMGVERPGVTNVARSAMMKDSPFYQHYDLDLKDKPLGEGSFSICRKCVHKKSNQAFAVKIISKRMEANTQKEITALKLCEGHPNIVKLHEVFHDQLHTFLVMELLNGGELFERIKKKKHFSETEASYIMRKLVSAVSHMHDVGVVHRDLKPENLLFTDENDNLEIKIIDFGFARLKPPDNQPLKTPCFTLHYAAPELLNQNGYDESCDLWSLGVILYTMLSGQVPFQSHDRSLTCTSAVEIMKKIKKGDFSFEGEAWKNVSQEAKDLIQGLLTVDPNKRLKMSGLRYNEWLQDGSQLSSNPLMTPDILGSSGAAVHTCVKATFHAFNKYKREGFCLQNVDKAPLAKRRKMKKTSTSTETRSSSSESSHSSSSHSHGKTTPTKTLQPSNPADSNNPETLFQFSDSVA
CHEK2 (human), sequence (O96017 whole entry, looked up): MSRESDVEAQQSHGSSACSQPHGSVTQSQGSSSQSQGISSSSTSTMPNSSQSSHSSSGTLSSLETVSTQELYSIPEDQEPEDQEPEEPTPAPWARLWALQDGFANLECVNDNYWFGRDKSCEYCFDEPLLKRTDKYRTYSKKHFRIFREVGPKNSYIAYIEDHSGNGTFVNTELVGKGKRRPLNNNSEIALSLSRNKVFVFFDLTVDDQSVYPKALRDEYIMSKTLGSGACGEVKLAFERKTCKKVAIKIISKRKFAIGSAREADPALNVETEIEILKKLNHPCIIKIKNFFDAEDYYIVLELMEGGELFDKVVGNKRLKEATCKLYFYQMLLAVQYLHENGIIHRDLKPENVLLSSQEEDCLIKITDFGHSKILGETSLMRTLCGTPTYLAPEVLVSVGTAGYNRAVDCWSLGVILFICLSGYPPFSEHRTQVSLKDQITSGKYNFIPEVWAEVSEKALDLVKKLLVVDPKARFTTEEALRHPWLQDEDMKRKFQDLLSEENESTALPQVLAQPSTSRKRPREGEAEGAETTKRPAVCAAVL
RPS6KA1 KD1 KD2 (human), sequence (Q15418 whole entry, looked up): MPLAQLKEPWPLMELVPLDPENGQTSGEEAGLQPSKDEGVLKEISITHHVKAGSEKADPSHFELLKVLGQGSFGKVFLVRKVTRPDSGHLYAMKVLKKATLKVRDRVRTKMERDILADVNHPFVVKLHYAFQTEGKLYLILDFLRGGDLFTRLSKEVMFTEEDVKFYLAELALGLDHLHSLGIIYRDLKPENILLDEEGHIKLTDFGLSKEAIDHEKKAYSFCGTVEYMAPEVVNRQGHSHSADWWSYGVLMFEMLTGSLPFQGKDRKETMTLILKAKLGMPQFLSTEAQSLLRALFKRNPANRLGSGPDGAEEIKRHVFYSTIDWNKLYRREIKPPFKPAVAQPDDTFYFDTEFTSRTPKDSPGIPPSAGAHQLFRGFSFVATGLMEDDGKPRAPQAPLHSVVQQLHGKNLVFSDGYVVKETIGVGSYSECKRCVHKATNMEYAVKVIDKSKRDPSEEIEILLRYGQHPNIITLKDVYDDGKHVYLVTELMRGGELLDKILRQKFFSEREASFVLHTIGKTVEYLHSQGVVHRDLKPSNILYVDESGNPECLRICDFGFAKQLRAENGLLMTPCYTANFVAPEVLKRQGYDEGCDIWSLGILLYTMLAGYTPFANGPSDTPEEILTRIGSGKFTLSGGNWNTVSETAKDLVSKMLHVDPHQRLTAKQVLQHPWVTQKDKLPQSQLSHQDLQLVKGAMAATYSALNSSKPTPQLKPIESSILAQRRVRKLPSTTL
MAPK1 (human), sequence (P28482 whole entry, looked up): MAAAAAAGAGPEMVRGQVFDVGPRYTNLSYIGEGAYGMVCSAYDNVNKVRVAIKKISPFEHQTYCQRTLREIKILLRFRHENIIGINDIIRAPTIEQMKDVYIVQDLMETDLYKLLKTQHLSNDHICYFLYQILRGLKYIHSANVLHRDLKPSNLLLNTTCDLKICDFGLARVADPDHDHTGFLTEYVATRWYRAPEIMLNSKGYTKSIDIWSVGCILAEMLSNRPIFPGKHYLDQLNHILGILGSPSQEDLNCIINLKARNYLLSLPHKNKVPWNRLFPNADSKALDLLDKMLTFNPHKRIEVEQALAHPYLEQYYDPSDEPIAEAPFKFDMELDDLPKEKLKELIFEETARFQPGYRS
MAP2K1 (human), sequence (Q02750 whole entry, looked up): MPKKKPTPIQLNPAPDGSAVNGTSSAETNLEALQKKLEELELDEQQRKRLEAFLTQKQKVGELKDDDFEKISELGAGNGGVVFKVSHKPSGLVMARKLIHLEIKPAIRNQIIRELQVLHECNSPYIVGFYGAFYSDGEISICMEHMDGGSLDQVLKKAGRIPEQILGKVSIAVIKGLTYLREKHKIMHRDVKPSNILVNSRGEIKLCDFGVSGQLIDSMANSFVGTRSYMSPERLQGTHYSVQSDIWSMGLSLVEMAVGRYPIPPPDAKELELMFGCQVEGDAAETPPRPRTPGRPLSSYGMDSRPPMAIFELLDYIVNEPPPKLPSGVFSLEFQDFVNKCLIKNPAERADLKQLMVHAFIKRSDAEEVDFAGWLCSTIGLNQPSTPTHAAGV
CSNK1D (human), sequence (P48730 whole entry, looked up): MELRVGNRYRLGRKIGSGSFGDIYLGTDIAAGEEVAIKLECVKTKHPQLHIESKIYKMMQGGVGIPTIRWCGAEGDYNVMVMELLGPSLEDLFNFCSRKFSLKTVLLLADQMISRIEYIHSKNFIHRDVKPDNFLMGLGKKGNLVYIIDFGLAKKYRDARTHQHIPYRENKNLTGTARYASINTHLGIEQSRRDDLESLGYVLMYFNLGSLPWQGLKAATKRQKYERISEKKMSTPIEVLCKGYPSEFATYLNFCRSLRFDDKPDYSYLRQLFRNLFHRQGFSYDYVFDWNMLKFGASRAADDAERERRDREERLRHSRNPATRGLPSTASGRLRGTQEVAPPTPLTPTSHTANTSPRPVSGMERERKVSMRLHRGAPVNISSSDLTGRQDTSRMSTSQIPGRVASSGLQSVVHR
MAPK3 (human), sequence (P27361 whole entry, looked up): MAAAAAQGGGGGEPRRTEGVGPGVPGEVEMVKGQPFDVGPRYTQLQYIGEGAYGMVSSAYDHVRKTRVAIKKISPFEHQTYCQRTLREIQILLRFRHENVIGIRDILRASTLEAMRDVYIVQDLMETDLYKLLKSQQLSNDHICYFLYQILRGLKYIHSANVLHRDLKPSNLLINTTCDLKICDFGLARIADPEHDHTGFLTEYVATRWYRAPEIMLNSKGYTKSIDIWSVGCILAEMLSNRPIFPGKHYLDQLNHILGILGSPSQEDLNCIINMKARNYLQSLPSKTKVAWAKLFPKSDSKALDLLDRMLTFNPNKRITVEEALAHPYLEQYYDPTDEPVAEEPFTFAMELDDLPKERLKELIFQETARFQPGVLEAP
IKBKE (human), sequence (Q14164 whole entry, looked up): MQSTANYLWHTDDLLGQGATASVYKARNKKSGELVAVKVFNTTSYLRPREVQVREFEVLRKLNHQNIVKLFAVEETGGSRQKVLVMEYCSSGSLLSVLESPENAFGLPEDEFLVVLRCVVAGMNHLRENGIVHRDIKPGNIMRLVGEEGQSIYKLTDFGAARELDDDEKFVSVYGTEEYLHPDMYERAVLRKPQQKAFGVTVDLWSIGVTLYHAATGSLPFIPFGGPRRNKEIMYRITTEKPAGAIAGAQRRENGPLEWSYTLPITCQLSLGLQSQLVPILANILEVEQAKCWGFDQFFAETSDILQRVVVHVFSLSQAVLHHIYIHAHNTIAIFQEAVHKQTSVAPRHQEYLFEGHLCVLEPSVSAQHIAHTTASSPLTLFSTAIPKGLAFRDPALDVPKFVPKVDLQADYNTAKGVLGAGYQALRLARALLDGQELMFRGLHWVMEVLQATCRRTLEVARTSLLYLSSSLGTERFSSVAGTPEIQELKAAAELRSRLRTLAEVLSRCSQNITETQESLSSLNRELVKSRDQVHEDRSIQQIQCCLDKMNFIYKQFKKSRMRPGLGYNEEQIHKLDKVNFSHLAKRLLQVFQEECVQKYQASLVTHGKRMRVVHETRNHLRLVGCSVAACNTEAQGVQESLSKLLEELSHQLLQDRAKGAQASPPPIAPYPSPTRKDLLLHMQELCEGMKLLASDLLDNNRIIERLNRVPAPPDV

Molecule `C/C(=C1/C(=O)Nc2ccc(NC(N)=O)cc21)c1ccc[nH]1` has a residual activity ([1]; compound 0.001 µM) of 79%, a residual activity ([1]; compound 0.01 µM) of 82% and a residual activity (BTK (human); compound 0.001 µM) of 95%. It also gave a residual activity (BTK (human); compound 0.01 µM) of 85%, a residual activity (BTK (human); compound 0.1 µM) of 93% and a residual activity (CDK2 CCNA2 (human); compound 0.001 µM) of 102%. It also gave a residual activity (CDK2 CCNA2 (human); compound 0.01 µM) of 87%, a residual activity (CDK2 CCNA2 (human); compound 0.1 µM) of 85% and a residual activity (CHEK2 (human); compound 0.001 µM) of 32%. For the same molecule, the residual activity (CHEK2 (human); compound 0.01 µM) was 7%, the residual activity (CHEK2 (human); compound 0.1 µM) was 0% and the residual activity (CSK (human); compound 0.01 µM) was 97%. The residual activity (CSK (human); compound 0.1 µM) was 102%, the residual activity (CSNK1D (human); compound 0.001 µM) was 94% and the residual activity (CSNK1D (human); compound 0.01 µM) was 94%. It also gave a residual activity (CSNK1D (human); compound 0.1 µM) of 89%, a residual activity (FLT1 (human); compound 0.001 µM) of 95% and a residual activity (FLT1 (human); compound 0.01 µM) of 50%. It also gave a residual activity (FLT1 (human); compound 0.1 µM) of 13%, a residual activity (IKBKB (human); compound 0.001 µM) of 76% and a residual activity (IKBKB (human); compound 0.01 µM) of 74%. The residual activity (IKBKE (human); compound 0.001 µM) was 85%, the residual activity (IKBKE (human); compound 0.01 µM) was 84% and the residual activity (IKBKE (human); compound 0.1 µM) was 69%. The residual activity (INSRR (human); compound 0.001 µM) was 91%, the residual activity (INSRR (human); compound 0.01 µM) was 75% and the residual activity (INSRR (human); compound 0.1 µM) was 47%. The residual activity (MAP2K1 (human); compound 0.001 µM) was 87%, the residual activity (MAP2K1 (human); compound 0.01 µM) was 33% and the residual activity (MAP2K1 (human); compound 0.1 µM) was 7%. For the same molecule, the residual activity (MAPK1 (human); compound 0.001 µM) was 108%, the residual activity (MAPK1 (human); compound 0.01 µM) was 95% and the residual activity (MAPK1 (human); compound 0.1 µM) was 79%. It also gave a residual activity (MAPK14 (human); compound 0.001 µM) of 87%, a residual activity (MAPK14 (human); compound 0.01 µM) of 86% and a residual activity (MAPK14 (human); compound 0.1 µM) of 84%. For the same molecule, the residual activity (MAPK15 (human); compound 0.001 µM) was 85%, the residual activity (MAPK15 (human); compound 0.01 µM) was 49% and the residual activity (MAPK15 (human); compound 0.1 µM) was 7%. It also gave a residual activity (MAPK3 (human); compound 0.001 µM) of 97%, a residual activity (MAPK3 (human); compound 0.01 µM) of 89% and a residual activity (MAPK3 (human); compound 0.1 µM) of 82%. It also gave a residual activity (MKNK2 (human); compound 0.001 µM) of 93%, a residual activity (MKNK2 (human); compound 0.01 µM) of 86% and a residual activity (MKNK2 (human); compound 0.1 µM) of 78%. For the same molecule, the residual activity (NEK2 (human); compound 0.001 µM) was 92%, the residual activity (NEK2 (human); compound 0.01 µM) was 92% and the residual activity (NEK2 (human); compound 0.1 µM) was 86%. It also gave a residual activity (NEK6 (human); compound 0.001 µM) of 86%, a residual activity (NEK6 (human); compound 0.01 µM) of 84% and a residual activity (NEK6 (human); compound 0.1 µM) of 82%. It also gave a residual activity (PAK7 (human); compound 0.001 µM) of 84%, a residual activity (PAK7 (human); compound 0.1 µM) of 78% and a residual activity (PIM2 (human); compound 0.01 µM) of 92%. It also gave a residual activity (PIM2 (human); compound 0.1 µM) of 65%, a residual activity (PLK1 (human); compound 0.001 µM) of 86% and a residual activity (PLK1 (human); compound 0.01 µM) of 82%. It also gave a residual activity (PLK1 (human); compound 0.1 µM) of 72%, a residual activity (PRKAA1 or PRKAA2 (rat); compound 0.001 µM) of 62% and a residual activity (PRKAA1 or PRKAA2 (rat); compound 0.01 µM) of 25%. The residual activity (PRKAA1 or PRKAA2 (rat); compound 0.1 µM) was 7%, the residual activity (PRKACA (human); compound 0.001 µM) was 92% and the residual activity (PRKACA (human); compound 0.01 µM) was 87%. It also gave a residual activity (PRKACA (human); compound 0.1 µM) of 81%, a residual activity (RPS6KA1 KD1 KD2 (human); compound 0.001 µM) of 89% and a residual activity (RPS6KA1 KD1 KD2 (human); compound 0.01 µM) of 75%. It also gave a residual activity (RPS6KA1 KD1 KD2 (human); compound 0.1 µM) of 24%, a residual activity (RPS6KA3 KD1 KD2 (human); compound 0.001 µM) of 82% and a residual activity (RPS6KA3 KD1 KD2 (human); compound 0.01 µM) of 65%. It also gave a residual activity (RPS6KA3 KD1 KD2 (human); compound 0.1 µM) of 19%, a residual activity (RPS6KA5 KD1 KD2 (human); compound 0.001 µM) of 83% and a residual activity (RPS6KA5 KD1 KD2 (human); compound 0.01 µM) of 87%. For the same molecule, the residual activity (RPS6KA5 KD1 KD2 (human); compound 0.1 µM) was 80%, the residual activity ([2]; compound 0.001 µM) was 95% and the residual activity ([2]; compound 0.01 µM) was 91%. For the same molecule, the residual activity ([2]; compound 0.1 µM) was 83%, the residual activity (SRC (human); compound 0.001 µM) was 84% and the residual activity (SRC (human); compound 0.01 µM) was 79%. The residual activity (SRC (human); compound 0.1 µM) was 71%, the residual activity (SYK (human); compound 0.001 µM) was 100% and the residual activity (SYK (human); compound 0.01 µM) was 104%. For the same molecule, the residual activity (SYK (human); compound 0.1 µM) was 97%.
